Test results published in patent publication US12616691B2, “Use of fatty acid oxidation inhibitors as antimicrobials” (Washington University in St. Louis, priority 2018, dated 2026).
In brackets after ≈: the same amount, converted by molar mass. Read-outs that look alike come from different tables or passages of the source.

What was measured:
Mtb (H37Rv) = experiment: MIC on Mtb (H37Rv) in liquid; assay type: cell-based, Mycobacterium tuberculosis; conditions: for MIC: Mycobacterium tuberculosis
FAO [1] = conditions: murine and human monocyte-derived macrophages; cited from earlier work
p62 = experiment: Autophagy induction: p62 co-localization with Mtb and p62 puncta in BMDMs; assay type: cell-based; conditions: 5 nM
Procedure: Wild type BMDMs were infected with H37Rv expressing DsRed at MOI 1:5 for 4 hours. After bacterial uptake, the culture medium was supplemented with TMZ (5 nm). At 24 hours post infection (hpi), samples were fixed and immunostained with p62 (green). Alternatively, bacterial numbers were enumerated by CFU at 3 days post infection (dpi). For IF, images were captured using a confocal microscope equipped with a 60× oil immersion objective lens. To quantify co-localation of Mtb and autophagosomes each bacteria was converted to a region of interest (ROI) and the mean fluorescence intensity of the p62 signal was measured. To assess autophagy induction, the total p62 puncta per cell in shapes that were untreated or treated with TMZ. IFN-γ, which activates autophagy, was used as a positive control.

total cellular ROS = experiment: Total cellular ROS (CellRox staining) in macrophages; assay type: cell-based
Procedure: Total cellular ROS levels were compared in FAO inhibitor-treated and untreated samples using CellRox (Molecular Probes) staining. Macrophages were infected as previously described and co-localization of Mth with subunits of the NADPH oxidase (p40^phox and gp91^phox/NOX2) were monitored in FAO inhibitor-treated and untreated samples. To determine whether FAO inhibition induced oxidative stress in the host, uninfected RAW 264.7 cells were treated with TMZ at 5 nM and 500 nM and ETM at 50 μM and total cellular ROS was determined at 1, 3, and 24 hours post-treatment using CellRox dye. In parallel, tert-butyl hydroperoxide (0.5 mM tBHP) was used as a positive control. The samples were imaged using confocal microscopy and the fluorescence intensity of each cell was quantified.

H37Rv = experiment: Efficacy of TMZ in acute TB infection in mice (CFU in lungs and spleen); assay type: in vivo, Mycobacterium tuberculosis; conditions: 16.8 mg/kg/day, 2 weeks
Mtb = experiment: MIC against Mtb in human THP1 cells; assay type: cell-based, Mycobacterium tuberculosis
Text: If CPT-1 and 3-KAT are the relevant antimicrobial targets, respectively, concordance in the potency of the compounds is anticipated in the assays. […] The MIC of TMZ against Mtb in human THP1 cells was approximately […].

[2] = design: species or system mice; conditions: in vivo
Procedure: A pharmacokinetics (PK) study of TMZ in C57BL/6 mice was performed. […] Therefore, subcutaneous osmotic pumps were used to maintain steady state plasma levels of TMZ. A second PK study was performed using subcutaneous osmotic pumps (Alzet Osmotic Pumps) to establish the optimal infusion rate and dosing for a subsequent efficacy study. TMZ steady state exposure in mice was successfully achieved with the use of subcutaneous osmotic pumps.

M. abscessus = experiment: Intracellular growth of M. abscessus in RAW264.7 cells and BMDMs (CFU); assay type: cell-based, Mycobacterium abscessus; conditions: RAW264.7 cells and wt BMDMs, 500 nM
gp91phox/NOX2 = experiment: Co-localization of Mtb with NADPH oxidase subunit NOX2 in BMDMs; assay type: cell-based; conditions: 24 hours
BMDMs [3] = experiment: OCR and ECAR by SeaHorse metabolic flux assay in BMDMs; assay type: cell-based; conditions: wild type BMDMs, 5 nM, 3 hours
Procedure: (§1) Oxygen consumption rate (OCR) and extracellular acidification rate (ECAR) was measured using SeaHorse Analyzers in uninfected wild type and FAO-deficient carnitine palmitoyltransferase 2 KO (Cpt2 cKO) BMDMs treated with 5 nM TMZ. Additionally, whether FAO inhibitors promoted pro-inflammatory signaling was tested. Wild type macrophages were infected with H37Rv and treated with 5 nM TMZ for 24 and 72 hpi. Following filter sterilization, sample supernatants were examined for pro-inflammatory cytokines including, IL-1β, IL-6, TNF-α, and the anti-inflammatory cytokine IL-10.

BMDMs [4] = experiment: Macrophage viability (calcein-AM); assay type: cell-based, murine; conditions: 72 hours
Procedure: FIG. 4B depicts the effect of metformin and oxfenicine on macrophage viability. BMDMs were treated with the indicated concentration of compound for 72 hours, and viability was assessed using the cellular dye, calcein-AM, and normalized to untreated controls (--). Data are mean+/−SD.
Importantly, plasma concentrations of TMZ in patients treated for angina (60 mg/day) are 70-100 nM, in line with the ability of TMZ to inhibit FAO in intact hearts at 100 nM. […] BMDMs were treated with the indicated concentration of compound for 72 hours, and viability was assessed using the cellular dye, calcein-AM, and normalized to untreated controls (--).
The antimicrobial activity and FAO inhibition was analyzed for cellular toxicity. BMDMs were treated with the indicated concentration of compound for 72 hours, and viability was assessed using the cellular dye, calcein-AM, and normalized to untreated controls (--).

[5] = tested on: IL-6, TNF-α, IL-1α/β, and IL-10; experiment: Cytokine levels in supernatants of BMDMs; assay type: cell-based; conditions: wild type BMDMs, 5 nM, 24 and 72 hpi
Procedure: as §1

FAO [6] = conditions: cited from earlier work
long-chain 3-KAT = molecular target: T1, long-chain 3-KAT (Rattus norvegicus, UniProt Q60587); conditions: rat heart mitochondria; cited from earlier work
T1 construct: from tissue; host or cells: rat heart mitochondria
T1 sequence (Q60587 35-475): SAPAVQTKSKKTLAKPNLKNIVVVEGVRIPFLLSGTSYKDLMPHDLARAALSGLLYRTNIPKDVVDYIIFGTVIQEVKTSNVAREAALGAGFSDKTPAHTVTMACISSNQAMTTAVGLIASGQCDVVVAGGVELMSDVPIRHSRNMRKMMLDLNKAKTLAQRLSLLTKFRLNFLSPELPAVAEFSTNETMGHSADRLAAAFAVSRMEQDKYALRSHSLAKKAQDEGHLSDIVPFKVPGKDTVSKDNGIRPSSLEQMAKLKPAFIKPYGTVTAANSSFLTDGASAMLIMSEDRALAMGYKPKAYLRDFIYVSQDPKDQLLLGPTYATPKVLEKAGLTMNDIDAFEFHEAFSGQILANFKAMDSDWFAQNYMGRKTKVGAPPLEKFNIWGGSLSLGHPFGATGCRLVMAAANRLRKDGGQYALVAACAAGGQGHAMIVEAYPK
T1 sequence (Q64428 37-763 partner): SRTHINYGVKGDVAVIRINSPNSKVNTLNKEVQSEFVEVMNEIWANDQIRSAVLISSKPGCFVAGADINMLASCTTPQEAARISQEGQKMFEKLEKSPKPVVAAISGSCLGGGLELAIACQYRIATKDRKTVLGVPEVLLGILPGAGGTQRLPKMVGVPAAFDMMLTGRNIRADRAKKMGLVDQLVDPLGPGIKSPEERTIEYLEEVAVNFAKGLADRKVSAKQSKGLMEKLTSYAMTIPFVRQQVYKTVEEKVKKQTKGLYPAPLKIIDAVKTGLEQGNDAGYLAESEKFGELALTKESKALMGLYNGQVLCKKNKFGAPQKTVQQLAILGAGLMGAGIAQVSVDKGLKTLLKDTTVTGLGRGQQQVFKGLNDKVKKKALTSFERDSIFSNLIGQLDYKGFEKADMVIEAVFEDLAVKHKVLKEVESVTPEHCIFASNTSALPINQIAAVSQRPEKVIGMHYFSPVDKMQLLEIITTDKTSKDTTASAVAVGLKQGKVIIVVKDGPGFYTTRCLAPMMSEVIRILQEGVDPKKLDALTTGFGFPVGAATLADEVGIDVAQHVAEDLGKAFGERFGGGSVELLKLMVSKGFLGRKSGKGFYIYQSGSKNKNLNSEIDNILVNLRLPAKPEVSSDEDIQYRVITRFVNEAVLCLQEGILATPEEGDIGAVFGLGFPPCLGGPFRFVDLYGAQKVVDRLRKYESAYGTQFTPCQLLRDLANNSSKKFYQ

[7] = human, in vivo, 20 mg; cited from earlier work
mitochondrial ROS = experiment: Mitochondrial ROS (mitoSOX) in uninfected BMDMs; assay type: cell-based; conditions: TMZ 500 nM 3 hours; antimycin 30 μM, rotenone 10 μM 30 minutes
Procedure: Mitochondrial ROS production was measured in macrophages treated with TMZ in combination with ETC inhibitors antimycin and rotenone. Rotenone inhibits Complex I (NADH coenzymeQ reductase) and antimycin is an inhibitor of Complex III (coenzyme Q: cytochrome C oxidoreductase). Uninfected BMDMs were treated with 500 nM TMZ for 3 hours. Thirty minutes prior to termination of the experiment, antimycin (30 μM) and rotenone (10 μM) were added. Menadione (60 μM, 30 mins), which causes mitochondrial depolarization, was used as a positive control. Mitochondrial ROS production was increased in samples treated with TMZ, antimycin and rotenone (FIG. 14A). However, contrasting results were observed when TMZ was used in combination with the ETC inhibitors.

LC3 = experiment: Autophagy flux (LC3 with and without bafilomycin A1) in H37Rv-infected BMDMs; assay type: cell-based; conditions: 500 nM, 3 hours
[8] = Mtb (H37Rv) in liquid, read-out: MIC

Question: With CCOC(=O)C1(CCCCCCOc2ccc(Cl)cc2)CO1 (centres unmarked) [Etomoxir, ethyl 2-[6-(4-chlorophenoxy)hexyl]oxirane-2-carboxylate] as the molecule, how does the MIC (Mtb (H37Rv); [8]) read?
Answer: > 250 µM

Question: What about the “direct effect on Mtb growth” value (Mtb (H37Rv); ten times the dose that inhibited intracellular Mtb) of the same molecule?
Answer: did not directly prevent Mtb growth

Question: And the “concentration that blocks FAO in macrophages” value (FAO [1])?
Answer: 10 to 25 µM

Question: Which MIC (Mtb (H37Rv); [8]) does the source give for NNC(=O)c1ccncc1 [INH, isoniazid] here?
Answer: < 0.3 µM

Question: With CN(C)C(=N)N=C(N)N [Metformin, metformin] as the molecule, how does the MIC (Mtb (H37Rv); [8]) read?
Answer: > 15000 µM

Question: Which MIC (Mtb (H37Rv); [8]) does the source give for C1CCC(C(CC2CCCCN2)C2CCCCC2)CC1 (centres unmarked) [Perhexiline, 2-(2,2-dicyclohexylethyl)piperidine] here?
Answer: > 100 µM

Question: Which “total number of p62 puncta in macrophages” value (p62) does the source give for COc1ccc(CN2CCNCC2)c(OC)c1OC [Trimetazidine, 1-(2,3,4-trimethoxybenzyl)piperazine] here?
Answer: significantly increased

Question: What about the “co-localization of H37Rv and p62” value (p62; 24 hpi) of the same molecule?
Answer: increased

Question: And the MIC (Mtb (H37Rv); H37RV)?
Answer: 1000 µM (≈ 266 µg/mL)

Question: What about the “total cell ROS in Mtb-infected Atg5 KO BMDMs” value (total cellular ROS; 3 hour treatment) of the same molecule?
Answer: increased ROS signal

Question: What about the “total cell ROS in Mtb-infected Nox2 KO BMDMs” value (total cellular ROS; 24 hours, 5 nM) of the same molecule?
Answer: significant increase in ROS

Question: And the “total cell ROS in Mtb-infected wild type BMDMs” value (total cellular ROS; 24 hours, 5 nM)?
Answer: induced ROS

Question: What about the “reduction in Mtb CFUs in the lungs” value (H37Rv; C57Bl/6 mice) of the same molecule?
Answer: 50-70%

Question: And the “bacterial burden in lung and spleen tissues” value (H37Rv; vs untreated control mice)?
Answer: significantly reduced bacterial burden

Question: What about the “MIC against Mtb in human THP1 cells” value (Mtb) of the same molecule?
Answer: approximately 50 nM

Question: What about the “predicted free drug concentrations” value ([2]; C57BL/6, mouse, 16.8 mg/kg/day) of the same molecule?
Answer: 135 nM

Question: And the half-life ([2]; mouse)?
Answer: less than an hour

Question: What about the “M. abscessus infection (CFU)” value (M. abscessus) of the same molecule?
Answer: significantly decreased infection

Question: And the “co-localization of Mtb and NOX2” value (gp91phox/NOX2)?
Answer: increased

Question: And the ECAR (BMDMs [3])?
Answer: decrease

Question: What about the macrophage toxicity (BMDMs [4]) of the same molecule?
Answer: not related to macrophage toxicity

Question: And the “levels of IL-6, TNF-α, IL-1α/β, and IL-10” value [5]?
Answer: No significant difference

Question: And the “concentration that inhibits FAO in intact hearts” value (FAO [6])?
Answer: 100 nM

Question: What about the IC50 (long-chain 3-KAT) of the same molecule?
Answer: ~75 nM

Question: And the Cmax [7]?
Answer: 313 nM

Question: And the “mitochondrial ROS production” value (mitochondrial ROS)?
Answer: increased

Question: What about the autophagy flux (LC3) of the same molecule?
Answer: No changes

Question: With C=C(C)[C@H]1Cc2c(ccc3c2O[C@@H]2COc4cc(OC)c(OC)cc4[C@@H]2C3=O)O1 [rotenone] as the molecule, how does the “mitochondrial ROS production” value (mitochondrial ROS) read?
Answer: increased

Question: With antimycin as the molecule, how does the “mitochondrial ROS production” value (mitochondrial ROS) read?
Answer: increased
